By IC50 is commonly meant the concentration that inhibits the measured activity by half.

Non-standard residues stand in square brackets, D forms with d. Residues, ends and D or L forms follow the SMILES beside them. Dolaproine = CO[C@@H]([C@@H]1CCCN1)[C@@H](C)C(=O)O; Dil = CC[C@H](C)[C@H](NC)[C@@H](CC(=O)O)OC; NMeV = CN[C@H](C(=O)O)C(C)C

In series [1] the test system is NCI-N87 cancer cells. Description: In vitro analysis of benzodiazepine dimer derivatives, cell viability by MTT assay. Conditions: 6 days incubation, sigmoidal dose-response fit. The format is cell-based. As for the experimental part:
NCI-N87 cancer cells were seeded into 24-well plates at 25×10^3 cells/1 mL medium/well. The plates were incubated for 24 hours at 37° C. in a humidified 5% CO2-in-air atmosphere. Benzodiazepine dimer derivatives were dissolved initially in DMSO at a concentration of 10 mM. Serial dilutions were made in DMSO. The series of compound dilutions in DMSO were added to triplicate wells of 24-well plates at 5 μL per well. Three wells on each individual plate received 5 μL of DMSO without compound as controls. The final concentration of DMSO per well was 0.5%. The plates were incubated for 6 days at 37° C. in a humidified 5% CO2-in-air atmosphere. Cell viability was determined by the MTT assay and IC50 was generated using a sigmoidal dose-response nonlinear regression curve fit (GraphPad Software Inc.). Results thereof are shown in FIG. 1, FIG. 2, FIG. 3, and Table 2.
A general note: Formazan colour is commonly taken as a measure of viable cells.

Series [2] is described as follows: Solubility test: relative solubility by retention time on analytical HPLC. Type of series: physicochemical. Particulars: HPLC retention times under acidic (0.1% TFA); RP-C18, 5→95% ACN in water over 15 minutes; measure of relative solubility. The procedure: A solubility study was conducted to check the relative solubility of D-102, D-103, D-104, D-105, D-106, and D-107 on the retention time using analytical HPLC.

Series [3] deals with NCI-N87 cancer cells. Description: In vitro analysis of protein-drug conjugates (cell cytotoxicity of antibody-drug conjugate), MTT assay. Type of series: cell-based. Conditions: ADCs, 6 days incubation. As for the experimental part: NCI-N87cancer cells were seeded in 96-well plates at a density 5000 cells per well in 100 μL of medium, and cultured for 24 hours. The four compounds ADCs in Example 77 were treated by serial dilutions of 1:4 from 50 nM to 0.0003 nM, and the antibody drug conjugate T-DM1 was treated by serial dilutions of 1:4 from 50 nM to 0.0007 nM. The series of compound dilutions in DMSO were added to triplicate wells of […] at 5 μL per well. Three wells on each individual plate received 5 μL of DMSO without compound as controls. The final concentration of DMSO per well was 0.5%. The plates were incubated for 6 days at 37° C. in a humidified 5% CO2-in-air atmosphere. Cell viability was determined by the MTT assay and IC50 was generated using a sigmoidal dose-response nonlinear regression curve fit (GraphPad software Inc.)
Results of in vitro analysis of compounds T-1-AB, T-2-AB, T-3-AB, and T-4-AB, are shown in FIG. 4, FIG. 5, FIG. 6, FIG. 7, and Table 4.

In turn, `COc1cc2c(cc1OCc1cccc(COc3cc4c(cc3OC)C(=O)N3Cc5ccccc5C[C@H]3C=N4)c1)N=C[C@@H]1Cc3ccccc3CN1C2=O` [Ref-2, reference compound] showed an IC50 in the series with NCI-N87 cancer cells [1] (Homo sapiens, 144 h) of 0.0089 ± 0.002 nM.

`COc1cc2c(cc1OCc1cc(O)cc(COc3cc4c(cc3OC)C(=O)N3Cc5ccsc5C[C@H]3C=N4)c1)N=C[C@@H]1Cc3sccc3CN1C2=O` [Compound D-103] displayed an IC50 in the series on NCI-N87 cancer cells [1] (Homo sapiens, 144 h) of 0.0472 ± 0.01 nM. Besides, the “Retention time” value in series [2] amounted to 9.75 min.

Regarding T-DM1, half-maximal inhibition in the series with NCI-N87 cancer cells [3] (IC50) required 0.213 ± 0.12 nM.

In the series on NCI-N87 cancer cells [1], `CC[C@H](C)[C@@H]([C@@H](CC(=O)N1CCC[C@H]1[C@H](OC)[C@@H](C)C(=O)N[C@@H](Cc1ccccc1)C(=O)OC)OC)N(C)C(=O)[C@@H](NC(=O)[C@@H](NC)C(C)C)C(C)C` [MMAF-OMe, reference compound] (H-[NMeV]V[Dil][Dolaproine]F-OMe) came in with an IC50 of 0.182 nM.

In the case of `COc1cc2c(cc1OCc1cc(O)cc(COc3cc4c(cc3OC)C(=O)N3Cc5ccccc5C[C@H]3C=N4)c1)N=C[C@@H]1Cc3ccccc3CN1C2=O` [Ref-3, reference compound], in the series with NCI-N87 cancer cells [1] (Homo sapiens, 144 h), the IC50 was 0.025 ± 0.018 nM. Also, in series [2], the “Retention time” value amounted to 10.00 min.

Take `COc1cc2c(cc1OCc1cc(COc3cc4c(cc3OC)C(=O)N3Cc5ccsc5C[C@H]3C=N4)cc(CN(C)C)c1)N=C[C@@H]1Cc3sccc3CN1C2=O` [Compound D-104]: the IC50 in the series with NCI-N87 cancer cells [1] (Homo sapiens, 144 h) turned out to be 0.013 ± 0.003 nM. The “Retention time” value in series [2] is given as 8.98 min.

Regarding `COc1cc2c(cc1OCc1cc(O)cc(COc3cc4c(cc3OC)C(=O)N3Cc5c(ncn5C)C[C@H]3C=N4)c1)N=C[C@@H]1Cc3ncn(C)c3CN1C2=O` [Compound D-101], the IC50 in the series with NCI-N87 cancer cells [1] (Homo sapiens, 144 h) was 17.8 ± 6.6 nM.

The molecule `COc1ccc(C2=CN3C(=O)c4cc(OC)c(OCc5cc(COc6cc7c(cc6OC)C(=O)N6Cc8ccsc8C[C@H]6C=N7)cc(CN(C)C)c5)cc4N=C[C@@H]3C2)cc1` [Compound D-114] showed an IC50 in the series with NCI-N87 cancer cells [1] (Homo sapiens, 144 h) of 1.89 nM.

Regarding `COc1cc2c(cc1OCc1cc(COc3cc4c(cc3OC)C(=O)N3Cc5ccoc5C[C@H]3C=N4)cc(CN(C)C)c1)N=C[C@@H]1Cc3occc3CN1C2=O` [Compound D-107], half-maximal inhibition in the series on NCI-N87 cancer cells [1] (Homo sapiens, 144 h) (IC50) required 0.013 ± 0.002 nM. The “Retention time” value in series [2] is given as 8.60 min.

Consider `COc1cc2c(cc1OCc1cc(O)cc(COc3cc4c(cc3OC)C(=O)N3Cc5ncn(C)c5C[C@H]3C=N4)c1)N=C[C@@H]1Cc3c(ncn3C)CN1C2=O` [Compound D-102], for which, in the series on NCI-N87 cancer cells [1] (Homo sapiens, 144 h), the IC50 amounted to 4.99 ± 0.785 nM. Also, in series [2], the “Retention time” value came to 6.50 min.

Molecule `COc1cc2c(cc1OCc1cc(O)cc(COc3cc4c(cc3OC)C(=O)N3Cc5c(n(C)c[n+]5C)C[C@H]3C=N4)c1)N=C[C@@H]1Cc3c([n+](C)cn3C)CN1C2=O` [Compound D-110] came in with a 50% inhibitory concentration (IC50) in the series with NCI-N87 cancer cells [1] (Homo sapiens, 144 h) of 588 ± 223 nM.

The molecule `COc1cc2c(cc1OCc1cc(COc3cc4c(cc3OC)C(=O)N3Cc5ccccc5C[C@H]3C=N4)cc(CN(C)C)c1)N=C[C@@H]1Cc3ccccc3CN1C2=O` [Ref-1, reference compound] gave an IC50 in the series on NCI-N87 cancer cells [1] (Homo sapiens, 144 h) of 0.013 ± 0.003 nM. In series [2], the “Retention time” value is 9.30 min.

Molecule `COc1cc2c(cc1OCc1cc(COc3cc4c(cc3OC)C(=O)N3Cc5sccc5C[C@H]3C=N4)cc(CN(C)C)c1)N=C[C@@H]1Cc3ccsc3CN1C2=O` [Compound D-108] had an IC50 in the series on NCI-N87 cancer cells [1] (Homo sapiens, 144 h) of 0.008 ± 0.001 nM.

`COc1cc2c(cc1OCc1cc(COc3cc4c(cc3OC)C(=O)N3Cc5cc(Br)sc5C[C@H]3C=N4)cc(CN(C)C)c1)N=C[C@@H]1Cc3sc(Br)cc3CN1C2=O` [Compound D-109] showed an IC50 with NCI-N87 cancer cells [1] (Homo sapiens, 144 h) of 0.025 ± 0.01 nM.

`COc1cc2c(cc1OCc1cc(O)cc(COc3cc4c(cc3OC)C(=O)N3Cc5ncn(C)c5C[C@H]3C=N4)c1)N=C[C@@H]1Cc3ccccc3CN1C2=O` [Compound D-105] registered an IC50 in the series with NCI-N87 cancer cells [1] (Homo sapiens, 144 h) of 0.933 ± 0.344 nM. In series [2], the “Retention time” value was found to be 8.05 min.

`COc1cc2c(cc1OCc1cc(COc3cc4c(cc3OC)C(=O)N3Cc5ncn(C)c5C[C@H]3C=N4)cc(CN(C)C)c1)N=C[C@@H]1Cc3c(ncn3C)CN1C2=O` [Compound D-106] registered an IC50 in the series with NCI-N87 cancer cells [1] (Homo sapiens, 144 h) of 28.9 ± 15 nM. For the same molecule, the “Retention time” value in series [2] turned out to be 6.02 min.

These data come from patent publication US12274898B2, “Substituted benzodiazepines as antibody-drug conjugates” (priority 2018, dated 2025).
